Data reported in patent publication US5466682A, “Acylamino-alkyliden-hydroxy-bisphosphonic acids esters and salts thereof, wherein the acyl group is derived from an acid having antiinflammatory activity” (Istituto Gentili S.p.A., priority 1991, dated 1995).

Columns and labels:
Carrageenin Oedema = Carrageenin Oedema in Rat (% protection of paw oedema); format: in vivo, rat (S.D. male); details: subcutaneous; for % Protection 2nd hour: 2nd hour after carrageenin; for % Protection 4th hour: 4th hour after carrageenin; for % Protection 6th hour: 6th hour after carrageenin
Procedure: Carrageenin Oedema in Rat
Carrageenin+Ibuprofen (11 and 5.5 mg/kg)
Carrageenin+compound of example 8 (Br-Ax) (25.0 and 12.5 mg/kg)
Carrageenin+compound of example 7 (Br-Ab) (25.0 and 12.5 mg/kg)
Note: Ibuprofen doses are equimolar to the corresponding Br-Ab and Br-Ax doses.
S.D. male rats weighing 160-180 g
1) Control - (Carrageenin only)
Each group consisted of 5 males, trying to obtain the most homogeneous total weight for each group. The animals were inoculated subcutaneously with the test solutions homogenized in 5% gum Arabic which had been sterilized by filtration with "Acrodisc" Gelman with […] pores.
After 1 hour the animals were […] 0.1 ml of 1% carrageenin in sterile saline. Carrageenin was kept under stirring by means of a magnetic stirred, to make it as homogeneous as possible.
At the same time, the basal paw volumes were determined by means of a plethysmograph, so as to make possible to repeat the measurements in the most reliable way in the subsequent hours.
2 Hours after carrageenin inoculation, the measure of paw volumes was determined (2nd hour). Subsequently, said measurement was effected at the 4th and 6th hours from inoculation. After that, the % protection was calculated by means of the following formula: [formula]

[1] = tested on: bone calcium loss induced by retinoid; assay: Bone calcium loss induced by retinoid in thyroparathyroidectomized rat (plasma Ca); format: in vivo, rat (male); details: thyroparathyroidectomized rats, retinoid s.c. 3 days, 24 hours after last administration; for Plasmatic Ca increase after retinoid adm.: controls 1.11 ± 0.03; for % inhibition (of plasmatic Ca increase after retinoid): versus controls
Procedure: Male rats weighing about […] are thyroparathyroidectomyzed under Nembutal anaesthesia. The animals are treated with thyroxine on alternate days during all the test. 7 Days after surgery, blood is withdrawn by means of intracardiac puncture and Ca is determined on plasma. […] 24 Hours after the last administration, animals are killed and blood is recovered to determine Ca again.
BONE CALCIUM LOSS INDUCED BY RETINOID IN RAT

Row | Compound | % Protection 2nd hour (Carrageenin Oedema; 12.5 mg/kg) | % Protection 4th hour (Carrageenin Oedema; 12.5 mg/kg) | % Protection 6th hour (Carrageenin Oedema; 12.5 mg/kg) | % Protection 2nd hour (Carrageenin Oedema; 25.0 mg/kg) | % Protection 4th hour (Carrageenin Oedema; 25.0 mg/kg) | % Protection 6th hour (Carrageenin Oedema; 25.0 mg/kg) | Plasmatic Ca increase after retinoid adm. [1] | % inhibition (of plasmatic Ca increase after retinoid) [1] | % Protection 2nd hour (Carrageenin Oedema; 5.5 mg/kg) | % Protection 4th hour (Carrageenin Oedema; 5.5 mg/kg) | % Protection 6th hour (Carrageenin Oedema; 5.5 mg/kg) | % Protection 2nd hour (Carrageenin Oedema; 11.0 mg/kg) | % Protection 4th hour (Carrageenin Oedema; 11.0 mg/kg) | % Protection 6th hour (Carrageenin Oedema; 11.0 mg/kg)
1 | CC(C)Cc1ccc(C(C)C(=O)NCCCC(O)(P(=O)(O)O)P(=O)(O)O)cc1 (stereo not shown) [Br--Ab, [4-[2-(4-Isobutylphenyl)-propionyl]-amino-1-hydroxybutylidene]-diphosphonicacid] | 31% | 28% | 30% | 68% | 57% | 38% | 0.62 ± 0.03 mmol/lt | 44.1% |  |  |  |  |  | 
2 | CC(C)Cc1ccc(C(C)C(=O)NCCCCCC(O)(P(=O)(O)O)P(=O)(O)O)cc1 (stereo not shown) [Br--Ax, [6-[2-(4-Isobutylphenyl)-propionyl]-amino-1-hydroxyhexylidene]-diphosphonicacid] | 41% | 36% | 48% | 42% | 21% | 56% | 0.75 ± 0.17 mmol/lt | 32.4% |  |  |  |  |  | 
3 | CC(C)Cc1ccc(C(C)C(=O)O)cc1 (stereo not shown) [Ibuprofen, ibuprofen, reference compound] |  |  |  |  |  |  |  |  | 18% | 3% | 4% | 21% | 25% | 28%
